Laboratory results reported in patent publication US7557085B2, “Metabolic-based methods for modulating gene expression” (Wisconsin Alumni Research Foundation, priority 2005, dated 2009).
Like-named read-outs stand apart in the source and are kept apart here.

Columns and labels:
[1] = tested on: NRSF mediated repression; assay: gal4-NRSF luciferase reporter (G5-TATA-Luc) in JTC-19 cells; type: cell-based, rat
[2] = molecular target: T1, CtBP2 binding to NRSF (Mus musculus, UniProt P56546); assay: immunoprecipitation of MYC-NRSF with KT3-CtBP2 from HEK cells at NADH concentrations
T1 construct: expressed in transfected cells; host or cells: HEK-293 cells
Description: Protein was harvested, incubated with the indicated concentrations of NADH and immunoprecipitated with anti-KT3 antibody or anti-Jun antibody as sham. Immune complexes were subjected to Western blot analysis with anti-MYC antibody.
As NADH concentrations regulate CtBP2 binding to a number of transcription factors (see Zhang et al., 2002, Id.; Mirnezami et al., 2003, Id.; Kim et al., 2005, Nat Struct Mol Biol 12: 423-8) and the non-NADH binding G189A CtBP mutant abolishes metabolic sensitivity of NRSF function, CtBP2 binding to NRSF was tested as a function of NADH concentration. In these experiments, HEK cells were co-transfected with plasmids expressing MYC-tagged NRSF or KT3-tagged CtBP2 as described above. Protein was harvested, incubated with NADH at concentrations from 0-1000 nM and immunoprecipitated with anti-KT3 antibody or anti-Jun antibody as sham. Immune complexes were subjected to Western blot analysis using an anti-MYC antibody conjugated with horseradish peroxidase as described above and in Roopra et al. (2004, Id.). […] Half maximal binding occurred at a physiologically relevant concentrations of ˜70 nM (data not shown).

[3] = molecular target: T2, CtBP2 binding to NRSF (Homo sapiens, UniProt P56545); assay: binding of recombinant 6x-HIS-CtBP2 to immunopurified MYC-tagged NRSF with NADH; details: recombinant CtBP2 pre-incubated with NADH
T2 construct: made in house
Description: Immunoprecipitation experiments were performed to examine CtBP2/NRSF binding and the effect of increasing NADH concentration on such binding. In these experiments, soluble recombinant 6×-HIS-tagged CtBP2 (produced using the Qiagen Expression System, Qiagen, Valencia, Calif., according to the manufacturer's instructions) was pre-incubated with indicated concentrations of NADH and then added to immunopurified, antibody and bead bound MYC-tagged NRSF protein (Roopra et al., 2000, Id.) while maintaining the appropriate NADH concentration. The resulting complexes were harvested, washed and subjected to Western blot analysis with an antibody to the 6×-HIS tag on CtBP2 (Qiagen). CtBP2 binding to NRSF is abrogated in the presence of NADH, showing that the NRSF-CtBP2 interaction is sensitive to NADH concentration.

T1 sequence (P56546 whole entry): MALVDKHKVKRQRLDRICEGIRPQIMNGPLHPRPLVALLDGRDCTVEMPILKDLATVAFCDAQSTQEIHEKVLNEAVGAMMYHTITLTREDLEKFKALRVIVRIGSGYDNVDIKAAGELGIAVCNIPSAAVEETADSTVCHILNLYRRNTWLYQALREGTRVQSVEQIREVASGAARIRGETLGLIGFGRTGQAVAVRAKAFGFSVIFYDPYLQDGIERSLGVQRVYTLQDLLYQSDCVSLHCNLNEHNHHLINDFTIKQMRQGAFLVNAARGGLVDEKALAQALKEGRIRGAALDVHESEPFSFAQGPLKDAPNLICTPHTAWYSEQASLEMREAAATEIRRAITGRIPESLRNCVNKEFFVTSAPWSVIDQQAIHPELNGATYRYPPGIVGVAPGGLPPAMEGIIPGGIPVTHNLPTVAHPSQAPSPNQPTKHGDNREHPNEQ

## O=C(O)CC(O)(CC(=O)O)C(=O)O [citrate, reference compound]
[1]; JTC-19 cells, 16 hrs
  repression of luciferase reporter gene expression by NRSF (fold repression gal4 DBD/gal4-NRSF): increased repression

## [Cl-].[Cl-].[Co+2] [CoCl2, reference compound]
[1]
  repression of luciferase reporter gene expression by NRSF (fold repression gal4 DBD/gal4-NRSF): decreased repression

## NC(=O)C1=CN([C@@H]2O[C@H](COP(=O)(O)OP(=O)(O)OC[C@H]3O[C@@H](n4cnc5c(N)ncnc54)[C@H](O)[C@@H]3O)[C@@H](O)[C@H]2O)C=CC1 [NADH]
[2]; HEK cell protein incubated with NADH 0-1000 nM, data not shown, read-out: NADH concentration of half maximal binding of CtBP to NRSF
  IC50: ~70 nM
[2]; increasing concentrations of NADH, 0-1000 nM, dose dependent
  effect on binding of CtBP to NRSF: disrupted binding
[3]
  CtBP2 binding to NRSF: abrogated
